# Assay results: patent publication US20230278981A1, “DICHLOROPHENOL HSD17B13 INHIBITORS AND USES THEREOF” (INIPHARM, INC., priority 2020, published 2023)
# Biological target: HSD17B13 (Homo sapiens (Human), UniProt Q7Z5P4)
# Assay: LC/MS estrone detection assay: conversion of estradiol to estrone by HSD17B13
# Format: biochemical
# Conditions: 4 μM estradiol, 6 mM NAD+, 30 nM HSD17B13 enzyme (E. coli expressed His-tagged), 2 hours at 26.5° C.
# Protocol: The liquid chromatography/mass spectrometry (LC/MS) estrone detection assay monitors the conversion of estradiol to estrone by HSD17B13. This assay was undertaken in a 96wp format (Eppendorf deep well Plate 96/500) in an 80 μl reaction volume containing: 4 μM of Estradiol (E2; Cayman; Ser. No. 10/006,315), 6 mM NAD+(Sigma; #N0623) and 30 nM HSD17B13 enzyme (in-house; E. coli expressed His-tagged, purified, soluble protein) in a reaction containing […] potassium phosphate buffer pH 7.4, with 0.5% vehicle (DMSO). Reactions were incubated for 2 hours at 26.5° C., and estradiol (E2) conversion to estrone (E1) was quantitated by LC-MS/MS based analyte detection for both E2 and E1 using LCMS grade reagents.
# Reactions were terminated by the addition of two volumes of acetonitrile (MeCN; LCMS grade; CAS #75/05/8) containing deuterated (D4)-E1 used as internal standard (Clear Synth; #CS-T-54273; 500 ng/mL final concentration). Samples were applied to pre-prepared Bond Elut-C18 extraction cartridges (3 mL; Agilent; Ser. No. 12/102,028), washed and eluted in MeCN. Eluates were dried under nitrogen and re-suspended in 60% methanol (LCMS grade methanol; CAS #67/56/1) before submission for analysis. Aqueous linearity for E2 and E1 were included for quantification.
# Analysis of samples was undertaken on a XBridge BEH C18 column (Waters; #186003033) using 0.1% Diethyl Amine in MeCN (mobile phase A; DEA CAS #109-89-7) and 0.1% Diethyl Amine in milli-Q water (mobile phase B) in a 3 min gradient allowing 25% B. Analytes were detected in negative mode using MRM analysis, with E2 having a RT of 1.85 min and E1 having a RT of 2 min. Activity of the enzyme, in the absence of NAD^+, was used to evaluate specificity of conversion. Enzyme activity in the presence of test samples was expressed as a percentage of the uninhibited enzyme activity, and plotted versus inhibitor concentration. Non-linear regression was performed using a four-parameter logistic model and GraphPad Prism software (GraphPad Software, La Jolla, Calif.). All assessments were undertaken in duplicate evaluations and pooled during extraction process and subsequently injected as duplicates for LC-MS/MS analysis.
# Sequence of HSD17B13 (Q7Z5P4 20-300): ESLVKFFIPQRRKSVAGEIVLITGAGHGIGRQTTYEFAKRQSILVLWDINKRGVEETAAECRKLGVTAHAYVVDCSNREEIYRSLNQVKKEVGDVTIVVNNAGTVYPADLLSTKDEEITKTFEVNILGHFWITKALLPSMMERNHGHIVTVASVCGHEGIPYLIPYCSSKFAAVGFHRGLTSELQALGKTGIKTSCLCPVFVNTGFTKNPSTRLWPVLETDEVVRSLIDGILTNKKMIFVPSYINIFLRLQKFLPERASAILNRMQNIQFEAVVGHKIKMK
row,Compound,IC50 [nM]
1,"C[C@H](c1cccc(F)c1)n1cnc2cccc(NC(=O)c3cc(Cl)c(O)c(Cl)c3)c2c1=O [Example 47, (R)-3,5-dichloro-N-(3-(1-(3-fluorophenyl)ethyl)-4-oxo-3,4-dihydroquinazolin-5-yl)-4-hydroxybenzamide]",≤ 100
2,"O=C(Nc1scnc1C(=O)NCc1ccccc1C(F)(F)F)c1cc(Cl)c(O)c(Cl)n1 [Example 192, 5-(4,6-dichloro-5-hydroxypicolinamido)-N-(2-(trifluoromethyl)benzyl)thiazole-4-carboxamide]",100 to 500
3,"O=C(NCc1ccccc1OC(F)(F)F)C1CCCN1C(=O)c1cc(Cl)c(O)c(Cl)c1 (stereo not drawn) [Example 128, 1-(3,5-dichloro-4-hydroxybenzoyl)-N-(2-(trifluoromethoxy)benzyl) pyrrolidine-2-carboxamide]",> 10000
4,"O=C(Nc1cccc2ncn(Cc3cccc(C(F)(F)F)c3)c(=O)c12)c1cc(Cl)c(O)c(Cl)c1 [Example 11, 3,5-dichloro-4-hydroxy-N-(4-oxo-3-(3-(trifluoromethyl)benzyl)-3,4-dihydroquinazolin-5-yl)benzamide]",≤ 100
5,"O=C(Nc1cccc2ncn(Cc3ccc(N4CCS(=O)(=O)CC4)cc3)c(=O)c12)c1cc(Cl)c(O)c(Cl)c1 [Example 63, 3,5-dichloro-N-(3-(4-(1,1-dioxidothiomorpholino)benzyl)-4-oxo-3,4-dihydroquinazolin-5-yl)-4-hydroxybenzamide]",100 to 500
6,"Cn1nc(CNC(=O)c2ncsc2NC(=O)c2cc(Cl)c(O)c(Cl)n2)c2ccccc21 [Example 187, 5-(4,6-dichloro-5-hydroxypicolinamido)-N-((1-methyl-1H-indazol-3-yl)methyl)thiazole-4-carboxamide]",100 to 500
7,"N#Cc1cc(C(=O)Nc2cccc3ncn(Cc4cccc(C(F)(F)F)c4)c(=O)c23)cc(Cl)c1O [Example 68, 3-chloro-5-cyano-4-hydroxy-N-(4-oxo-3-(3-(trifluoromethyl)benzyl)-3,4-dihydroquinazolin-5-yl)benzamide]",100 to 500
8,"O=C(Nc1cccc2ncn(Cc3cccc(OC(F)(F)F)c3)c(=O)c12)c1cc(Cl)c(O)c(Cl)c1 [Example 10, 3,5-dichloro-4-hydroxy-N-(4-oxo-3-(3-(trifluoromethoxy)benzyl)-3,4-dihydroquinazolin-5-yl)benzamide]",≤ 100
9,"O=C(Nc1cccc2ncn(Cc3ccncc3)c(=O)c12)c1cc(Cl)c(O)c(Cl)c1 [Example 17, 3,5-dichloro-4-hydroxy-N-(4-oxo-3-(pyridin-4-ylmethyl)-3,4-dihydroquinazolin-5-yl)benzamide]",1000 to 10000
10,"O=C(Nc1cccc2ncn(Cc3ccccc3-c3ccccn3)c(=O)c12)c1cc(Cl)c(O)c(Cl)n1 [Example 110, 4,6-dichloro-5-hydroxy-N-(4-oxo-3-(2-(pyridin-2-yl)benzyl)-3,4-dihydroquinazolin-5-yl)picolinamide]",100 to 500
11,"O=C(NCc1ccccc1OC(F)(F)F)C1CCCN1C(=O)c1cc(Cl)c(O)c(Cl)n1 (stereo not drawn) [Example 127, 1-(4,6-dichloro-5-hydroxypicolinoyl)-N-(2-(trifluoromethoxy)benzyl) pyrrolidine-2-carboxamide]",> 10000
12,"O=C(Nc1cccc2ncn(C3(c4ccccc4)CC3)c(=O)c12)c1cc(Cl)c(O)c(Cl)c1 [Example 20, 3,5-dichloro-4-hydroxy-N-(4-oxo-3-(1-phenylcyclopropyl)-3,4-dihydroquinazolin-5-yl) benzamide]",1000 to 10000
13,"O=C(Nc1cccc2ncn(Cc3cccnc3F)c(=O)c12)c1cc(Cl)c(O)c(Cl)n1 [Example 138, 4,6-dichloro-N-{3-[(2-fluoropyridin-3-yl)methyl]-4-oxo-3,4-dihydroquinazolin-5-yl}-5-hydroxypyridine-2-carboxamide]",100 to 500
14,"O=C(Nc1cccc2ncn(Cc3cccc(F)c3)c(=O)c12)c1cc(Cl)c(O)c(Cl)n1 [Example 22, 4,6-dichloro-N-{3-[(3-fluorophenyl)methyl]-4-oxo-3,4-dihydroquinazolin-5-yl}-5-hydroxypyridine-2-carboxamide]",≤ 100

# Results, then the compound that gave them:
row,IC50 [nM],Compound
1,≤ 100,"Cc1ccc(NC(=O)c2cc(Cl)c(O)c(Cl)n2)c2c(=O)n(Cc3ccccc3OC(F)(F)F)c(C)nc12 [Example 141, 4,6-dichloro-N-(2,8-dimethyl-4-oxo-3-(2-(trifluoromethoxy)benzyl)-3,4-dihydroquinazolin-5-yl)-5-hydroxypicolinamide]"
2,1000 to 10000,"Cc1ccc(NC(=O)c2cc(Cl)c(O)c(Cl)n2)c2c(=O)n(Cc3ncccc3F)c(C)nc12 [Example 195, 4,6-dichloro-N-(3-((3-fluoropyridin-2-yl)methyl)-2,8-dimethyl-4-oxo-3,4-dihydroquinazolin-5-yl)-5-hydroxypicolinamide]"
3,100 to 500,"[2H]C([2H])(c1ccccc1C(F)(F)F)n1c(C)nc2c(C)ccc(NC(=O)c3cc(Cl)c(O)c(Cl)n3)c2c1=O [Example 201, 4,6-dichloro-N-(2,8-dimethyl-4-oxo-3-{[2-(trifluoromethyl)phenyl](^2H2)methyl}-3,4-dihydroquinazolin-5-yl)-5-hydroxypyridine-2-carboxamide]"
4,≤ 100,"[2H]C([2H])([2H])c1nc2c(C)ccc(NC(=O)c3cc(Cl)c(O)c(Cl)c3)c2c(=O)n1Cc1ccccc1OC(F)(F)F [Example 169, 3,5-dichloro-4-hydroxy-N-(8-methyl-2-(methyl-d3)-4-oxo-3-(2-(trifluoromethoxy)benzyl)-3,4-dihydroquinazolin-5-yl)benzamide]"
5,100 to 500,"Cc1nc2c(Cl)ccc(NC(=O)c3cc(Cl)c(O)c(Cl)n3)c2c(=O)n1Cc1ncccc1C(F)(F)F [Example 165, 4,6-dichloro-N-(8-chloro-2-methyl-4-oxo-3-((3-(trifluoromethyl)pyridin-2-yl)methyl)-3,4-dihydroquinazolin-5-yl)-5-hydroxypicolinamide]"
6,100 to 500,"Cc1ccc2ncn(Cc3ccccc3OC(F)(F)F)c(=O)c2c1NC(=O)c1cc(Cl)c(O)c(Cl)c1 [Example 94, 3,5-dichloro-4-hydroxy-N-(6-methyl-4-oxo-3-(2-(trifluoromethoxy)benzyl)-3,4-dihydroquinazolin-5-yl)benzamide]"
7,≤ 100,"O=C(Nc1ccc(F)c2ncn(Cc3ccccc3OC(F)(F)F)c(=O)c12)c1cc(Cl)c(O)c(Cl)c1 [Example 132, 3,5-dichloro-N-(8-fluoro-4-oxo-3-{[2-(trifluoromethoxy)phenyl]methyl}-3,4-dihydroquinazolin-5-yl)-4-hydroxybenzamide]"
8,100 to 500,"O=C(Nc1ccnc2[nH]c(=O)n(Cc3ccccc3OC(F)(F)F)c(=O)c12)c1cc(Cl)c(O)c(Cl)c1 [Example 95, 3,5-dichloro-N-(2,4-dioxo-3-(2-(trifluoromethoxy)benzyl)-1,2,3,4-tetrahydropyrido[2,3-d]pyrimidin-5-yl)-4-hydroxybenzamide]"
9,100 to 500,"Cc1nc2c(F)ccc(NC(=O)c3cc(Cl)c(O)c(Cl)c3)c2c(=O)n1C(C)c1ccccc1OC(F)(F)F (stereo not drawn) [Example 157, 3,5-dichloro-N-(8-fluoro-2-methyl-4-oxo-3-(1-(2-(trifluoromethoxy)phenyl)ethyl)-3,4-dihydroquinazolin-5-yl)-4-hydroxybenzamide]"
10,≤ 100,"Cc1ccc(NC(=O)c2cc(Cl)c(O)c(Cl)c2)c2c(=O)n(Cc3ccccc3OC(F)(F)F)c(C(F)F)nc12 [Example 149, 3,5-dichloro-N-(2-(difluoromethyl)-8-methyl-4-oxo-3-(2-(trifluoromethoxy)benzyl)-3,4-dihydroquinazolin-5-yl)-4-hydroxybenzamide]"
